Paper PMC10589713 (Proceedings of the National Academy of Sciences of the …, 2023)
Values joined by “and” are separate entries in the source; they are usually repeats but may differ in a detail not shown here. Equal entries are not always repeated.

Tests used:
rgDENV2 NS5-G605V = assay type: cell-based, dengue virus
DENV2 [1] = assay: microbe, parasite or virus in culture; assay type: cell-based; settings: Dengue virus, DENV2, BHK-21, 96 h
ZIKV = assay: microbe, parasite or virus in culture; assay type: cell-based; settings: Zika virus, BHK-21, 72 h
YFV = assay: microbe, parasite or virus in culture; assay type: cell-based; settings: Yellow fever virus, BHK-21, 72 h
CHIKV = assay: microbe, parasite or virus in culture; assay type: cell-based; settings: Chikungunya virus, BHK-21
SARS-CoV-2 = assay: microbe, parasite or virus in culture; assay type: cell-based; settings: Severe acute respiratory syndrome coronavirus 2, VeroE6/TMPRSS2
LACV = assay: organism not typed; assay type: cell-based; settings: MDBK
LPHV = assay: microbe, parasite or virus in culture; assay type: cell-based; settings: Leopards Hill virus
LCMV = assay: microbe, parasite or virus in culture; assay type: cell-based; settings: Mammarenavirus choriomeningitidis
JUNV = assay: microbe, parasite or virus in culture; assay type: cell-based; settings: Mammarenavirus juninense, HEK-293T
SFTSV = assay: microbe, parasite or virus in culture; assay type: cell-based; settings: Severe fever with thrombocytopenia syndrome virus, MDCK
RVFV = assay: microbe, parasite or virus in culture; assay type: cell-based; settings: Rift Valley fever virus, MDCK
IAV H5N1 = assay: microbe, parasite or virus in culture; assay type: cell-based; settings: Influenza A virus, H5N1, A549
IAV H7N9 = assay: microbe, parasite or virus in culture; assay type: cell-based; settings: Influenza A virus, H7N9, MA104
rgDENV2 Wild type = assay: microbe, parasite or virus in culture; assay type: cell-based; settings: Dengue virus, BHK-21, 96 h
DENV2 [2] = assay: microbe, parasite or virus in culture; assay type: cell-based; settings: Dengue virus, DENV2, Huh-7
MERS-CoV = assay: microbe, parasite or virus in culture; assay type: cell-based; settings: Middle East respiratory syndrome-related coronavirus, VeroE6/TMPRSS2
DENV2 AG-P10 = test system: DENV2 AG-P10; design: species or system AG129 mice; settings: mouse, in vivo
[3] = mouse, in vivo
ZIKV NS5 (RdRp) = ZIKV NS5 (RdRp) (Zika virus, UniProt A0A024B7W1); assay type: biochemical
Sequence of ZIKV NS5 (RdRp) (A0A024B7W1 2521-3423 limits assumed): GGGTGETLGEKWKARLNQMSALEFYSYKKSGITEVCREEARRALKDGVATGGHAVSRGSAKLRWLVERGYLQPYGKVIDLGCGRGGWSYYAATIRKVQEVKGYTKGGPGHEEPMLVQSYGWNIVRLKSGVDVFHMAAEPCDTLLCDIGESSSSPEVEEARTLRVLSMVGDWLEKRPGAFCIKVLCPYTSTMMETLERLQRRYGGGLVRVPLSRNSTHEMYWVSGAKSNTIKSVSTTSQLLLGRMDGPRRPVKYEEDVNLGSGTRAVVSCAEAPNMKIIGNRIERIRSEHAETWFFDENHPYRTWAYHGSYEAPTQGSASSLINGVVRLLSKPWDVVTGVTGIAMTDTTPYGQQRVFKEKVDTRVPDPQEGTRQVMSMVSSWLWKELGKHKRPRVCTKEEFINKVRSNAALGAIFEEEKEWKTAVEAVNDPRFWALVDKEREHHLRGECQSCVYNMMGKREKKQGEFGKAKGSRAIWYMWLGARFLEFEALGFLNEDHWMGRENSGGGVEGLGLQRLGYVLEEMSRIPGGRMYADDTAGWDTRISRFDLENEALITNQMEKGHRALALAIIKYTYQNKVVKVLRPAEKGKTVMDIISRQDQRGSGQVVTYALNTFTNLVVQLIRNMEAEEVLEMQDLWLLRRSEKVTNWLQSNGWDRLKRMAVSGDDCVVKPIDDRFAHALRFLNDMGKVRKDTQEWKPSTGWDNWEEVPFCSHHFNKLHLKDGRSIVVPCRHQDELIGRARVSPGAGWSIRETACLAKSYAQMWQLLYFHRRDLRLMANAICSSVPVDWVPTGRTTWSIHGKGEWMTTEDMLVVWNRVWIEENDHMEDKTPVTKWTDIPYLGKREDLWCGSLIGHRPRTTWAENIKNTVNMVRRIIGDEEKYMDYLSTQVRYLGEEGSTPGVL

## NC(=O)c1nc(F)c[nH]c1=O [Favipiravir]
rgDENV2 NS5-G605V
  Fold change: 2.2

## NC(=O)c1ncn([C@@H]2O[C@H](CO)[C@@H](O)[C@H]2O)n1 [Ribavirin]
rgDENV2 NS5-G605V
  Fold change: 2.3

## O=c1ccn([C@@H]2O[C@H](CO)[C@@H](O)[C@H]2O)c(=S)[nH]1 [s2U, 2-thiouridine]
DENV2 [1]
  EC50: 1.5 ± 0.1 µM
ZIKV
  EC50: 3.8 ± 0.96 µM
YFV
  EC50: 3.2 ± 1.4 µM
CHIKV
  EC50: 3.8 ± 0.12 µM
SARS-CoV-2
  EC50: 2.3 ± 0.43 µM
LACV
  EC50: > 100 µM
LPHV
  EC50: > 100 µM
LCMV
  EC50: > 100 µM
JUNV
  EC50: > 100 µM
SFTSV
  EC50: > 100 µM
RVFV
  EC50: > 100 µM
IAV H5N1
  EC50: > 100 µM
IAV H7N9
  EC50: > 100 µM
rgDENV2 Wild type
  EC50: 0.86 ± 0.12 µM
rgDENV2 NS5-G605V
  EC50: 5.1 ± 0.69 µM
DENV2 [2]
  EC50: < 0.63 µM
  EC90: 3.4 µM
MERS-CoV
  EC50: 2.3 µM
DENV2 AG-P10
  median survival: 12.5 days and > 16 days and 12 days and 13 days
[3]
  body weight change: no BW loss
V79 cells
  mutagenicity, HPRT (in vitro gene mutation test): does not have sufficient ability to introduce mutations

## O=c1ccn([C@@H]2O[C@H](COP(=O)(O)OP(=O)(O)OP(=O)(O)O)[C@@H](O)[C@H]2O)c(=S)[nH]1 [s2UTP, s2U 5′-triphosphate]
ZIKV NS5 (RdRp)
  RNA extension catalyzed by ZIKV RdRp: inhibited RNA extension
